Results published in US20050261197A1, “Coffee bean extract, method of extraction and composition containing the same” (priority 2004, published 2005).

What was measured:
[1] = test system: Adjuvant Induced Arthritis in Rats; test: Adjuvant-induced arthritis model in rats (paw weight, anti-inflammatory activity); format: in vivo, male Sprague-Dawley rats; conditions: oral gavage once per day for 11 days; for Raw Paw Weight: Day 11, group average
Description: Adjuvant-induced arthritis responds to both steroids and non-steroids. The degree of inflammation will be assessed by measuring differences in foot weight and/or the foot volume.
(§1) Rats weighting between 275-310 g were purchased from Animal Technologies Ltd., Kent, Wash. They were male Sprague-Dawley rats. The animals were kept individually in stainless steel cages with free access to water and feed (Harlan Teklan Rodent Diet). The light cycle was maintained at 12 hours light and 12 hours dark. The temperature was maintained at 22° C.±3° C. with a relative humidity of 40 to 70%.
The composite was prepared by combining the isolated compounds genistein, flavionic acid, diadzien, diadzin and the peptide having the sequence Tyrosine-Glycine-Serine-Arginine-Serine. One milligram of each was mixed into 9 ml of distilled water and 1 ml of alcohol. The mixture was then diluted in order to deliver by daily gavage one and 10 mcg doses per kilo body weight.
(§2) The test materials were delivered orally (by gavage) once per day for 11 days.
Male Sprague-Dawley rats (275-310 g) were sensitized by injecting Fruend's complete adjuvant (0.5% suspension of killed mycobacterium tuberculosis (H37RA, Difco, in mineral oil)). A 0.1 ml aliquot was administered intradermally at a plantar site on the right hind leg of each rat.
(§3) The test materials were given orally (by gavage) to each of 5 rats per treatment group once per day for 11 days. Administration of the test materials was initiated on the day of induction of inflammation.
(§4) The left hind paw was measured just before sensitization and again on Day 11. The plantar edema inhibitory rate and the body weight gain rate were determined by comparison with the non-sensitized rat groups.
The paw weights for each group were averaged. Anti-inflammatory activity was determined by comparing paw weights calculated as follows: [formula]
Hydrocortisone was used as a positive control. It is a common anti-inflammatory given to rheumatoid arthritis patients at a dose of 10 mg/kg body weight. The composite of the invention was given at 10 mcg/kg and 1 mcg/kg body weight.

[2] = 11-day body weight gain of rats in the adjuvant-induced arthritis study; format: in vivo, male Sprague-Dawley rats; conditions: for Avg. Final Body wt. / Avg. Weight Gain: oral gavage once per day for 11 days
Description: as §1, §2, §3, §4

C[C@]12CCC(=O)C=C1CC[C@@H]1[C@@H]2[C@@H](O)C[C@@]2(C)[C@H]1CC[C@]2(O)C(=O)CO [Hydrocortisone]
Raw Paw Weight ([1]; 1 mcg/kg body wt.): 0.80 g | Raw Paw Weight ([1]; 10 mcg/kg body wt.): 0.76 g | inhibition at 0.001 mg/kg ([1]; Rattus norvegicus, 264 h, 1 mcg/kg body wt., calculated from paw weights): 50% | inhibition at 0.01 mg/kg ([1]; Rattus norvegicus, 264 h, 10 mcg/kg body wt., calculated from paw weights): 58% | Avg. Final Body wt. ([2]; 1 mcg/kg body wt.): 331.0 g | Avg. Weight Gain ([2]; 1 mcg/kg body wt.): 31.4 g | reduction in weight gain ([2]; 10 mcg/kg body weight, 11 days, versus controls): ~50% | Avg. Final Body wt. ([2]; 10 mcg/kg body wt.): 317.0 g | Avg. Weight Gain ([2]; 10 mcg/kg body wt.): 23.6 g
